Data published in US12528767B2, “HDAC6 inhibitors and uses thereof” (Eikonizo Therapeutics, Inc., priority 2019, dated 2026).

System: adult primary rat dorsal root ganglia (DRG)
Test: In vitro chemotherapy-induced peripheral neuropathy in rat DRGs treated with cisplatin
Type: cell-based, Sprague Dawley rat
Settings: 5 μM compound + 0.5 mM cisplatin, 4 days
Method: ACY-1083, obtained from MedChem Express, is a published HDAC6-selective inhibitor and was used as a benchmark. Blinded DMSO was used as an additional negative control. […] Nerve degeneration was evaluated by blebs per area as visualized by fluorescent imaging of beta tubulin staining. Axon area was also evaluated by fluorescent imaging of beta tubulin staining.
Select exemplary compounds were evaluated for prevention of nerve degeneration in an in vitro chemotherapy induced neuropathy model using adult primary rat dorsal root ganglia (DRG). Compounds were blinded for treatment and analysis, using DMSO as a vehicle control. […] Blebs (fragments) signify the beginning of the nerve degeneration process. Total axon area is related to neuron survival and is a more general measure of neuroprotection.
Dissociation solution (100 mL of HBSS with 2 mL of HEPES (1 M, pH 7.25)) was prepared and precooled to 4° C. on study day 1. A 24 well cell culture plate was coated with ECL. Each well was coated with 0.3 mL of ECL solution (1:25 in sterile PBS) and incubated overnight at 37° C. ECL solution was aspirated and the well plate was rinsed with neurobasal medium on study day 2. […]

Structure (SMILES) | Nerve degeneration: blebs per area compared to vehicle in the presence of cisplatin (FIG. 3A) | Axon area compared to vehicle in the presence of cisplatin (FIG. 3B)
O=C(NO)c1ccc(CN2C[C@H]3CC[C@@H]2CO3)c(F)c1 (single isomer, unassigned) [compound 173] | decreased blebs per area | –
O=C(NO)c1cc(F)c2c(c1)CCN1CCC[C@@H]21 (single isomer, unassigned) [compound 79] | – | increased axon area
